Test results published in PubChem BioAssay (NCI).
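Growth conditions: 96-well plates. Treatment: test compound, 48 hours, 5 concentrations. Analysis: linear interpolation between bracketing concentrations; unreached endpoints set to highest concentration. At the GI50, growth is halved. Definition used: TGI = concentration required for complete inhibition of growth.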

What was measured:
Assay in all cases: growth of human tumour cells (NCI), 48 h
EKVX NSCLC = test system: EKVX NSCLC
MDA-MB-231 breast = test system: MDA-MB-231 breast
OVCAR-3 ovarian = test system: OVCAR-3 ovarian
T-47D breast = test system: T-47D breast
OVCAR-4 ovarian = test system: OVCAR-4 ovarian
CCRF-CEM leukemia = test system: CCRF-CEM leukemia
UACC-62 melanoma = test system: UACC-62 melanoma
KM12 colon = test system: KM12 colon
MDA-MB-435 = test system: MDA-MB-435
IGROV1 ovarian = test system: IGROV1 ovarian

Nc1no[n+]([O-])c1-c1nnc2c(n1)-c1ccccc1C2=O
GI50 (EKVX NSCLC): 2.29 µM | TGI (EKVX NSCLC): 5.86 µM | GI50 (MDA-MB-231 breast): 2.89 µM | TGI (MDA-MB-231 breast): 9.4 µM | GI50 (OVCAR-3 ovarian): 0.569 µM | TGI (OVCAR-3 ovarian): 3.83 µM | GI50 (T-47D breast): 1.91 µM | TGI (T-47D breast): 5.35 µM | GI50 (OVCAR-4 ovarian): 1.42 µM | TGI (OVCAR-4 ovarian): 2.74 µM | GI50 (CCRF-CEM leukemia): 3.22 µM | TGI (CCRF-CEM leukemia): 9.37 µM | GI50 (UACC-62 melanoma): 4.47 µM | TGI (UACC-62 melanoma): 15.7 µM | GI50 (KM12 colon): 3.53 µM | TGI (KM12 colon): 15.3 µM | GI50 (MDA-MB-435): 1.91 µM | TGI (MDA-MB-435): 3.82 µM | GI50 (IGROV1 ovarian): 3.02 µM | TGI (IGROV1 ovarian): 11.7 µM

Cc1nn(-c2ccccc2)c2nc(C)n(-c3ccc(Br)cc3)c(=O)c12
GI50 (EKVX NSCLC): 0.822 µM | TGI (EKVX NSCLC): > 100 µM | GI50 (MDA-MB-231 breast): 1.45 µM | TGI (MDA-MB-231 breast): > 100 µM | GI50 (OVCAR-3 ovarian): 0.405 µM | TGI (OVCAR-3 ovarian): > 36.7 µM | GI50 (T-47D breast): 0.427 µM | TGI (T-47D breast): > 70.5 µM | GI50 (OVCAR-4 ovarian): 1.56 µM | TGI (OVCAR-4 ovarian): > 100 µM | GI50 (CCRF-CEM leukemia): 0.411 µM | TGI (CCRF-CEM leukemia): > 100 µM | GI50 (UACC-62 melanoma): 0.428 µM | TGI (UACC-62 melanoma): > 100 µM | GI50 (KM12 colon): 0.521 µM | TGI (KM12 colon): > 100 µM | GI50 (MDA-MB-435): 0.226 µM | TGI (MDA-MB-435): 0.684 µM | GI50 (IGROV1 ovarian): 0.584 µM | TGI (IGROV1 ovarian): > 100 µM

CCC(C(=O)[C@@H](C)[C@@H](O)[C@H](C)[C@@H]1O[C@@H]([C@@H](CC)C(=O)ONC(=O)c2ccccc2)CC[C@@H]1C)[C@H]1O[C@]2(C=CC(=O)[C@]3(CC[C@@](C)([C@H]4CC[C@](O)(CC)[C@H](C)O4)O3)O2)[C@H](C)C[C@@H]1C (stereo not given in full)
GI50 (EKVX NSCLC): 0.548 µM | TGI (EKVX NSCLC): 2.65 µM | GI50 (MDA-MB-231 breast): 0.295 µM | TGI (MDA-MB-231 breast): 1.63 µM | GI50 (OVCAR-3 ovarian): 0.0849 µM | TGI (OVCAR-3 ovarian): 1.29 µM | GI50 (T-47D breast): 0.0463 µM | TGI (T-47D breast): 2.98 µM | GI50 (OVCAR-4 ovarian): 1.07 µM | TGI (OVCAR-4 ovarian): > 40.1 µM | GI50 (CCRF-CEM leukemia): 0.12 µM | TGI (CCRF-CEM leukemia): 1.95 µM | GI50 (UACC-62 melanoma): 1.25 µM | TGI (UACC-62 melanoma): 2.93 µM | GI50 (KM12 colon): 0.592 µM | TGI (KM12 colon): 2.94 µM | GI50 (MDA-MB-435): 1.11 µM | TGI (MDA-MB-435): 2.88 µM | GI50 (IGROV1 ovarian): 0.198 µM | TGI (IGROV1 ovarian): 0.631 µM

Cc1ccc(NC2=CC(=O)C(=O)c3ccccc32)cc1
GI50 (EKVX NSCLC): 4 µM | TGI (EKVX NSCLC): 18.9 µM | GI50 (MDA-MB-231 breast): 2.57 µM | TGI (MDA-MB-231 breast): 15.8 µM | GI50 (OVCAR-3 ovarian): 1.66 µM | TGI (OVCAR-3 ovarian): 4.86 µM | GI50 (T-47D breast): 3.68 µM | TGI (T-47D breast): 18.1 µM | GI50 (OVCAR-4 ovarian): 1.39 µM | TGI (OVCAR-4 ovarian): 2.72 µM | GI50 (CCRF-CEM leukemia): 5.62 µM | TGI (CCRF-CEM leukemia): > 100 µM | GI50 (UACC-62 melanoma): 1.73 µM | TGI (UACC-62 melanoma): 3.23 µM | GI50 (KM12 colon): 2.59 µM | TGI (KM12 colon): 9.73 µM | GI50 (MDA-MB-435): 1.74 µM | TGI (MDA-MB-435): 3.2 µM | GI50 (IGROV1 ovarian): 2.73 µM | TGI (IGROV1 ovarian): 12.9 µM

Cc1ccc(/C(=C/C=C(C#N)C#N)Sc2nc3ccccc3s2)cc1
GI50 (EKVX NSCLC): 17.7 µM | TGI (EKVX NSCLC): 39.4 µM | GI50 (MDA-MB-231 breast): 2.18 µM | TGI (MDA-MB-231 breast): 5.56 µM | GI50 (OVCAR-3 ovarian): 4.49 µM | TGI (OVCAR-3 ovarian): 19 µM | GI50 (T-47D breast): 5.2 µM | TGI (T-47D breast): 35.7 µM | GI50 (OVCAR-4 ovarian): 6.68 µM | TGI (OVCAR-4 ovarian): 87.6 µM | GI50 (CCRF-CEM leukemia): 0.465 µM | TGI (CCRF-CEM leukemia): 3.02 µM | GI50 (UACC-62 melanoma): 2.6 µM | TGI (UACC-62 melanoma): 6.22 µM | GI50 (KM12 colon): 4.72 µM | TGI (KM12 colon): 28.9 µM | GI50 (MDA-MB-435): 3.54 µM | TGI (MDA-MB-435): 13.1 µM | GI50 (IGROV1 ovarian): 4.78 µM | TGI (IGROV1 ovarian): 29.8 µM

COc1ccc2nc3ccccc3c(NCc3ccccc3)c2c1
GI50 (EKVX NSCLC): 3.03 µM | TGI (EKVX NSCLC): 11.4 µM | GI50 (MDA-MB-231 breast): 1.85 µM | TGI (MDA-MB-231 breast): 4.38 µM | GI50 (OVCAR-3 ovarian): 2.65 µM | TGI (OVCAR-3 ovarian): 6.89 µM | GI50 (T-47D breast): 2.69 µM | TGI (T-47D breast): 8.89 µM | GI50 (OVCAR-4 ovarian): 2.37 µM | TGI (OVCAR-4 ovarian): 7.58 µM | GI50 (CCRF-CEM leukemia): 2.8 µM | TGI (CCRF-CEM leukemia): 11.7 µM | GI50 (UACC-62 melanoma): 2.29 µM | TGI (UACC-62 melanoma): 6.05 µM | GI50 (KM12 colon): 3.49 µM | TGI (KM12 colon): 12.9 µM | GI50 (MDA-MB-435): 1.91 µM | TGI (MDA-MB-435): 3.93 µM | GI50 (IGROV1 ovarian): 2.34 µM | TGI (IGROV1 ovarian): 6.66 µM
